Data as given in ChEMBL document CHEMBL1671662, “In vitro activities of telavancin and six comparator agents against anaerobic bacterial isolates” (2009).

Key:
Format in all cases: functional
[1] = tested on: Clostridium paraputrificum; experiment: Antibacterial activity against Clostridium paraputrificum by CLSI M11-A6 agar dilution method
[2] = tested on: Paraclostridium bifermentans; experiment: Antibacterial activity against Clostridium bifermentans by CLSI M11-A6 agar dilution method
Clostridium hathewayi = experiment: Antibacterial activity against Clostridium hathewayi by CLSI M11-A6 agar dilution method; conditions: Hungatella hathewayi
Ruminococcus gnavus = experiment: Antibacterial activity against Ruminococcus gnavus by CLSI M11-A6 agar dilution method; conditions: Mediterraneibacter gnavus
[3] = tested on: Catenibacterium mitsuokai; experiment: Antibacterial activity against Catenibacterium mitsuokai by CLSI M11-A6 agar dilution method
Phocaeicola vulgatus = experiment: Antibacterial activity against Bacteroides vulgatus by CLSI M11-A6 agar dilution method
[4] = tested on: Streptococcus intermedius; experiment: Antibacterial activity against Streptococcus intermedius by CLSI M11-A6 agar dilution method
Bifidobacterium longum = experiment: Antibacterial activity against Bifidobacterium longum by CLSI M11-A6 agar dilution method
Clostridium tertium = experiment: Antibacterial activity against Clostridium tertium by CLSI M11-A6 agar dilution method
Prevotella denticola = experiment: Antibacterial activity against Prevotella P denticola by CLSI M11-A6 agar dilution method
Ruminococcus lactaris = experiment: Antibacterial activity against Ruminococcus lactaris by CLSI M11-A6 agar dilution method
Clostridium bartlettii = experiment: Antibacterial activity against Clostridium bartlettii by CLSI M11-A6 agar dilution method; conditions: Intestinibacter bartlettii
[5] = tested on: Enterocloster clostridioformis; experiment: Antibacterial activity against Clostridium clostridioforme by CLSI M11-A6 agar dilution method
[6] = tested on: Peptostreptococcus anaerobius; experiment: Antibacterial activity against Peptostreptococcus anaerobius by CLSI M11-A6 agar dilution method
Prevotella bivia = experiment: Antibacterial activity against Prevotella bivia by CLSI M11-A6 agar dilution method
Coriobacterium = experiment: Antibacterial activity against […] by CLSI M11-A6 agar dilution method
[7] = tested on: Sutterella wadsworthensis; experiment: Antibacterial activity against Sutterella wadsworthensis by CLSI M11-A6 agar dilution method
[8] = tested on: Parabacteroides distasonis; experiment: Antibacterial activity against Parabacteroides distasonis by CLSI M11-A6 agar dilution method
Parvimonas micra = experiment: Antibacterial activity against Peptostreptococcus micros by CLSI M11-A6 agar dilution method
Prevotella intermedia = experiment: Antibacterial activity against Prevotella intermedia by CLSI M11-A6 agar dilution method
Clostridium disporicum = experiment: Antibacterial activity against Clostridium disporicum by CLSI M11-A6 agar dilution method
Ruminococcus albus = experiment: Antibacterial activity against Ruminococcus albus by CLSI M11-A6 agar dilution method; conditions: Hominimerdicola alba
[9] = tested on: Propionibacterium propionicum; experiment: Antibacterial activity against Propionibacterium propionicus by CLSI M11-A6 agar dilution method; conditions: Arachnia propionica
Bifidobacterium breve = experiment: Antibacterial activity against Bifidobacterium breve by CLSI M11-A6 agar dilution method
[10] = tested on: Streptococcus constellatus; experiment: Antibacterial activity against Streptococcus constellatus by CLSI M11-A6 agar dilution method
Parabacteroides merdae = experiment: Antibacterial activity against Parabacteroides merdae by CLSI M11-A6 agar dilution method
Odoribacter splanchnicus = experiment: Antibacterial activity against Bacteroides splanchnicus by CLSI M11-A6 agar dilution method
Prevotella oris = experiment: Antibacterial activity against Prevotella oris by CLSI M11-A6 agar dilution method; conditions: Segatella oris
[11] = tested on: Bifidobacterium adolescentis; experiment: Antibacterial activity against Bifidobacterium adolescentis by CLSI M11-A6 agar dilution method
Prevotella disiens = experiment: Antibacterial activity against Prevotella P disiens by CLSI M11-A6 agar dilution method
[12] = tested on: Coprobacillus cateniformis; experiment: Antibacterial activity against Coprobacillus cateniformis by CLSI M11-A6 agar dilution method
[13] = tested on: Bifidobacterium pseudolongum; experiment: Antibacterial activity against Bifidobacterium pseudolongum by CLSI M11-A6 agar dilution method
Clostridium bolteae = experiment: Antibacterial activity against Clostridium bolteae by CLSI M11-A6 agar dilution method; conditions: Enterocloster bolteae
Bacteroides fragilis = experiment: Antibacterial activity against Bacteroides fragilis by CLSI M11-A6 agar dilution method
[14] = tested on: Ruminococcus flavefaciens; experiment: Antibacterial activity against Ruminococcus flavefaciens by CLSI M11-A6 agar dilution method
Clostridium glycolicum = experiment: Antibacterial activity against Clostridium glycolicum by CLSI M11-A6 agar dilution method; conditions: Terrisporobacter glycolicus
Anaerococcus tetradius = experiment: Antibacterial activity against Anaerococcus tetradius by CLSI M11-A6 agar dilution method
Prevotella buccae = experiment: Antibacterial activity against Prevotella buccae by CLSI M11-A6 agar dilution method; conditions: Segatella buccae
[15] = tested on: Clostridium sporosphaeroides; experiment: Antibacterial activity against Clostridium sporosphaeroides by CLSI M11-A6 agar dilution method; conditions: Faecalispora sporosphaeroides
Actinomyces naeslundii = experiment: Antibacterial activity against Actinomyces naeslundii by CLSI M11-A6 agar dilution method
Finegoldia magna = experiment: Antibacterial activity against Finegoldia magna by CLSI M11-A6 agar dilution method
[16] = tested on: Peptoniphilus asaccharolyticus; experiment: Antibacterial activity against Peptoniphilus asaccharolyticus by CLSI M11-A6 agar dilution method
Ruminococcus torques = experiment: Antibacterial activity against Ruminococcus torques by CLSI M11-A6 agar dilution method; conditions: Mediterraneibacter torques

CCCCCCCCCC(=O)N[C@@H](Cc1c[nH]c2ccccc12)C(=O)N[C@H](CC(N)=O)C(=O)N[C@@H](CC(=O)O)C(=O)N[C@@H]1C(=O)NCC(=O)N[C@@H](CCCN)C(=O)N[C@@H](CC(=O)O)C(=O)N[C@H](C)C(=O)N[C@@H](CC(=O)O)C(=O)NCC(=O)N[C@H](CO)C(=O)N[C@@H]([C@H](C)CC(=O)O)C(=O)N[C@@H](CC(=O)c2ccccc2N)C(=O)O[C@@H]1C
≤ 0.12 µg/mL: MIC50 (Ruminococcus gnavus)
32 µg/mL: MIC90 [3] | MIC90 (Bifidobacterium longum) | MIC90 (Coriobacterium) | MIC90 [9] | MIC90 (Bifidobacterium breve) | MIC90 [11] | MIC90 [12] | MIC90 [13] | MIC90 (Actinomyces naeslundii)
> 128 µg/mL: MIC (Phocaeicola vulgatus) | MIC50 (Phocaeicola vulgatus) | MIC90 (Phocaeicola vulgatus) | MIC (Prevotella denticola) | MIC50 (Prevotella denticola) | MIC90 (Prevotella denticola) | MIC (Prevotella bivia) | MIC50 (Prevotella bivia) | MIC90 (Prevotella bivia) | MIC [7] | MIC50 [7] | MIC90 [7] | MIC [8] | MIC50 [8] | MIC90 [8] | MIC (Prevotella intermedia) | MIC50 (Prevotella intermedia) | MIC90 (Prevotella intermedia) | MIC (Parabacteroides merdae) | MIC50 (Parabacteroides merdae) | MIC90 (Parabacteroides merdae) | MIC (Odoribacter splanchnicus) | MIC50 (Odoribacter splanchnicus) | MIC90 (Odoribacter splanchnicus) | MIC (Prevotella oris) | MIC50 (Prevotella oris) | MIC90 (Prevotella oris) | MIC (Prevotella disiens) | MIC50 (Prevotella disiens) | MIC90 (Prevotella disiens) | MIC (Bacteroides fragilis) | MIC50 (Bacteroides fragilis) | MIC90 (Bacteroides fragilis) | MIC (Prevotella buccae) | MIC50 (Prevotella buccae) | MIC90 (Prevotella buccae)
1 µg/mL: MIC50 [1] | MIC50 [2] | MIC50 (Clostridium hathewayi) | MIC50 [3] | MIC50 (Bifidobacterium longum) | MIC50 (Clostridium tertium) | MIC50 (Ruminococcus lactaris) | MIC50 (Clostridium bartlettii) | MIC50 [6] | MIC50 (Coriobacterium) | MIC50 (Parvimonas micra) | MIC50 (Clostridium disporicum) | MIC50 (Ruminococcus albus) | MIC50 [9] | MIC50 (Bifidobacterium breve) | MIC50 [11] | MIC50 [12] | MIC50 [13] | MIC50 [14] | MIC50 (Clostridium glycolicum) | MIC50 (Anaerococcus tetradius) | MIC50 [15] | MIC50 (Actinomyces naeslundii) | MIC50 (Finegoldia magna) | MIC50 [16] | MIC50 (Ruminococcus torques)
0.25 µg/mL: MIC90 (Ruminococcus gnavus)
2 µg/mL: MIC90 (Clostridium hathewayi) | MIC50 [4] | MIC90 (Ruminococcus lactaris) | MIC50 [5] | MIC90 (Ruminococcus albus) | MIC50 [10] | MIC90 [14] | MIC90 (Ruminococcus torques)
8 µg/mL: MIC90 [1] | MIC90 [2] | MIC90 (Clostridium tertium) | MIC90 (Clostridium bartlettii) | MIC90 (Clostridium disporicum) | MIC90 (Clostridium glycolicum) | MIC90 [15]
4 µg/mL: MIC90 [4] | MIC90 [5] | MIC90 [6] | MIC90 (Parvimonas micra) | MIC90 [10] | MIC50 (Clostridium bolteae) | MIC90 (Clostridium bolteae) | MIC90 (Anaerococcus tetradius) | MIC90 (Finegoldia magna) | MIC90 [16]

CCC[C@@H]1C[C@@H](C(=O)N[C@@H]([C@H]2O[C@H](SC)[C@H](O)[C@@H](O)[C@H]2O)[C@H](C)Cl)N(C)C1 [CLINDAMYCIN]
> 128 µg/mL: MIC50 (Phocaeicola vulgatus) | MIC90 (Phocaeicola vulgatus) | MIC90 [6] | MIC90 (Parvimonas micra) | MIC90 (Odoribacter splanchnicus) | MIC90 (Bacteroides fragilis) | MIC90 (Anaerococcus tetradius) | MIC90 (Finegoldia magna) | MIC90 [16]
16 µg/mL: MIC50 [7]
128 µg/mL: MIC90 [7]
4 µg/mL: MIC90 [1] | MIC90 [2] | MIC90 (Clostridium tertium) | MIC90 (Clostridium bartlettii) | MIC90 (Clostridium disporicum) | MIC90 (Clostridium bolteae) | MIC90 (Clostridium glycolicum) | MIC90 [15]
0.5 µg/mL: MIC50 (Clostridium hathewayi) | MIC90 [4] | MIC90 [10] | MIC50 (Bacteroides fragilis)
0.25 µg/mL: MIC90 (Ruminococcus gnavus)
1 µg/mL: MIC90 [3] | MIC90 (Bifidobacterium longum) | MIC90 (Coriobacterium) | MIC90 [9] | MIC90 (Bifidobacterium breve) | MIC90 [11] | MIC90 [12] | MIC90 [13] | MIC90 (Actinomyces naeslundii)
64 µg/mL: MIC90 [8] | MIC90 (Parabacteroides merdae)
≤ 0.12 µg/mL: MIC50 (Ruminococcus gnavus) | MIC50 [3] | MIC50 (Bifidobacterium longum) | MIC (Prevotella denticola) | MIC50 (Prevotella denticola) | MIC90 (Prevotella denticola) | MIC50 (Ruminococcus lactaris) | MIC (Prevotella bivia) | MIC50 (Prevotella bivia) | MIC90 (Prevotella bivia) | MIC50 (Coriobacterium) | MIC (Prevotella intermedia) | MIC50 (Prevotella intermedia) | MIC90 (Prevotella intermedia) | MIC50 (Ruminococcus albus) | MIC50 [9] | MIC50 (Bifidobacterium breve) | MIC50 (Odoribacter splanchnicus) | MIC (Prevotella oris) | MIC50 (Prevotella oris) | MIC90 (Prevotella oris) | MIC50 [11] | MIC (Prevotella disiens) | MIC50 (Prevotella disiens) | MIC90 (Prevotella disiens) | MIC50 [12] | MIC50 [13] | MIC50 [14] | MIC (Prevotella buccae) | MIC50 (Prevotella buccae) | MIC90 (Prevotella buccae) | MIC50 (Actinomyces naeslundii) | MIC50 (Ruminococcus torques)
2 µg/mL: MIC90 (Clostridium hathewayi) | MIC90 (Ruminococcus lactaris) | MIC90 [5] | MIC50 [8] | MIC90 (Ruminococcus albus) | MIC50 (Parabacteroides merdae) | MIC50 (Clostridium bolteae) | MIC90 [14] | MIC90 (Ruminococcus torques)
